This is an account of results in US12157730B2, “Heteroaryl derivative, method for producing same, and pharmaceutical composition comprising same as effective component” (VORONOI INC., priority 2019, dated 2024).

Type in all cases: cell-based
Assay [1] addresses T1, Ba/F3 cell EGFR Exon20 ins ASV (Homo sapiens, UniProt P00533, INS769ASV).
T1 construct: expressed in transfected cells; host or cells: Ba/F3
The assay is described as follows: Ba/F3 cell proliferation suppression, EGFR Exon20 ins ASV. The following applies: 72 hours after treatment, CellTiter-Glo. The method, then:
(§1) The following experiment was carried out to evaluate the suppression activity of the compounds according to the present invention against proliferation of Ba/F3 and lung cancer cells which express EGFR mutations.
(§2) Of the cancer cell lines expressing the EGFR gene, A549 was cultured after adding 10% FBS (HyClone) to DMEM (Invitrogen), and RPMI-1640 (Invitrogen) with 10% FBS was used for the other cancer cells. For the Ba/F3 cells, RPMI-1640 with 10% FBS and 5 ng/ml IL-3 (R&D Systems) was used. The transduced Ba/F3 cells were cultured by adding 1 ug/ml puromycin (Invitrogen) to the same medium.
(§3) 24 hours before treatment with the compounds, 3000 to 5000 cells were distributed into each well of a white clear bottom 96 well plate (Corning). The compounds were diluted in dimethylsulfoxide (dilution ratio 3:1; 12 concentrations total) and injected 0.5 ul each for a final concentration of 0.3 nM to 50 um. As for measurement of live cells, 72 hours after treatment with the compounds, a CellTiter-Glo luminescent cell-viability reagent (Promega) was used to store the cells at room temperature for 10 minutes, followed by measurement of luminescence using a reader (SynergyNeo, Biotek). Each test was repeated three times.
(§4) The result was calculated as a cell growth ratio (%) compared to a control. The program GraphPad Prism version 5.0 was used to draw the graphs and calculate the GI50 values.
(In general: In ATP-based viability assays light output follows the ATP content of the culture.)

Assay [2] deals with T2, Ba/F3 cell EGFR Exon20 ins NPH (Homo sapiens, UniProt P00533, INS773NPH).
T2 construct: expressed in transfected cells; host or cells: Ba/F3
The assay is described as follows: Ba/F3 cell proliferation suppression, EGFR Exon20 ins NPH. The following applies: for GI50: 72 hours after treatment, CellTiter-Glo; for Ba/F3 (NPH) Activity: GI50 class, Ba/F3 cell line with NPH inserted at Exon20 of EGFR, 72 hours. The essentials: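 Seed 3000–5000 cells/well; after 24 h add compound (12 conc., 0.3 nM–50 um final); incubate 72 h; add CellTiter-Glo, 10 min room temperature; read luminescence; GI50 from % growth vs control, triplicate.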

The test system of the next assay is Ba/F3 cell naive. The assay is described as follows: Ba/F3 cell proliferation suppression, naive. To be noted: Mus musculus, BaF3; 72 hours after treatment, CellTiter-Glo. The method, then: as §1, §2, §3, §4
Assay [3] has as its target T3, Ba/F3 cell EGFR L858R/T790M (Homo sapiens, UniProt P00533, L858R/T790M).
T3 construct: expressed in transfected cells; host or cells: Ba/F3
Kind of assay: Ba/F3 cell proliferation suppression, EGFR L858R/T790M. To be noted: 72 hours after treatment, CellTiter-Glo. The method, then:
as §1, §2, §3, §4

The test system of assay [4] is Ba/F3 cell EGFR Del19/T790M. Kind of assay: Ba/F3 cell proliferation suppression, EGFR Del19/T790M. To be noted: 72 hours after treatment, CellTiter-Glo. The procedure: as §1, §2, §3, §4
Assay [5] addresses T4, Ba/F3 cell HER2 Exon20 ins YVMA (Homo sapiens, UniProt P04626, INS775YVMA).
T4 construct: expressed in transfected cells; host or cells: Ba/F3
The assay is described as follows: Ba/F3 cell proliferation suppression, HER2 Exon20 ins YVMA. The following applies: 72 hours after treatment, CellTiter-Glo. The method, then: as §1, §2, §3, §4

Assay [6] deals with T5, Ba/F3 cell EGFR Exon20 ins SVD (Homo sapiens, UniProt P00533, INS770SVD).
T5 construct: expressed in transfected cells; host or cells: Ba/F3
Kind of assay: Ba/F3 cell proliferation suppression, EGFR Exon20 ins SVD. To be noted: 72 hours after treatment, CellTiter-Glo. The procedure: as §1, §2, §3, §4

The target in another assay is T6, Ba/F3 cell EGFR L858R (Homo sapiens, UniProt P00533, L858R).
T6 construct: expressed in transfected cells; host or cells: Ba/F3
Kind of assay: Ba/F3 cell proliferation suppression, EGFR L858R. To be noted: 72 hours after treatment, CellTiter-Glo. The method, then: as §1, §2, §3, §4

Broadly, the GI50 is the concentration at which growth is held to half of that of the control.

T4 sequence (P04626 with tags, fused parts or gaps INS775YVMA): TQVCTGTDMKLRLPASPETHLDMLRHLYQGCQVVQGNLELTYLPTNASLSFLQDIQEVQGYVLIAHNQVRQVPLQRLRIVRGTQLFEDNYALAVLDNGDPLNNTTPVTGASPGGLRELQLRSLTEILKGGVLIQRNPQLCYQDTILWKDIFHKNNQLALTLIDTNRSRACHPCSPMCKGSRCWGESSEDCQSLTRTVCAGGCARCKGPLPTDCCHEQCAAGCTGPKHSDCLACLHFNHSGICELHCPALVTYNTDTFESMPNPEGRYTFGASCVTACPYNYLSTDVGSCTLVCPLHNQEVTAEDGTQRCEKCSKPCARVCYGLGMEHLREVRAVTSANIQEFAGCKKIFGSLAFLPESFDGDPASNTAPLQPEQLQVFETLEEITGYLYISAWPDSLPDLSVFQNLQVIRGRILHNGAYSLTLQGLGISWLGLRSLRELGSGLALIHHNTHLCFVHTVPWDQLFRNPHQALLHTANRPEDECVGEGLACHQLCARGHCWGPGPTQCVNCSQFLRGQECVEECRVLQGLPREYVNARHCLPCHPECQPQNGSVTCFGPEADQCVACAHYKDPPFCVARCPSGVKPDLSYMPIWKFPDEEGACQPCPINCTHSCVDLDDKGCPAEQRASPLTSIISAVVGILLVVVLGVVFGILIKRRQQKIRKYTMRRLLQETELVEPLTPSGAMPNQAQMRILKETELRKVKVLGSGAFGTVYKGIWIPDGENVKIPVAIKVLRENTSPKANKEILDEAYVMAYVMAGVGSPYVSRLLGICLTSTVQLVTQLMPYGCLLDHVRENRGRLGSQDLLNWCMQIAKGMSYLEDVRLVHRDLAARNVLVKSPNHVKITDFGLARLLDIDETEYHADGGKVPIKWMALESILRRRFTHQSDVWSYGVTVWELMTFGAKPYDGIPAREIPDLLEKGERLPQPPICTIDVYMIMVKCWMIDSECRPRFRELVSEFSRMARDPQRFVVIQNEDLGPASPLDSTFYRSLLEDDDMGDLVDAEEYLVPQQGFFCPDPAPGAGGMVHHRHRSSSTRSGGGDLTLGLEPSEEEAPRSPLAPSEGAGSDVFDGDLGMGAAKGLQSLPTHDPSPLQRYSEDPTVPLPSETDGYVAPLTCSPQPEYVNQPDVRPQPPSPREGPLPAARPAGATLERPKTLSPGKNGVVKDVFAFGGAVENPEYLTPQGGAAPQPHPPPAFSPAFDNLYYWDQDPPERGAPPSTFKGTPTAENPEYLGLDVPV

On to `C=CC(=O)Nc1cc(Nc2cc(N3OCC[C@@H]3c3cc(F)cc(F)c3)ncn2)c(OC)cc1N1CCC(N2CC[C@@H](N(C)C)C2)CC1` [Example 237, N-(5-((6-((R)-3-(3,5-difluorophenyl)isoxazolidine-2-yl)pyrimidine-4-yl)amino)-2-(4-((R)-3-(dimethylamino)pyrolidine-1-yl)piperidine-1-yl)-4-methoxyphenyl) acrylamide], for which the concentration for 50% growth inhibition (GI50) was under 0.05 µM in assay [1], under 0.05 µM in assay [2], at least 5 µM in the assay with Ba/F3 cell naive and under 0.05 µM in assay [3]. Further, the “Ba/F3 (NPH) Activity” value in assay [2] was “A (GI50 < 50 nM)”.

In the case of `C=CC(=O)Nc1cc(Nc2cc(N3OCC[C@@H]3c3ccccc3)ncn2)c(OC)cc1OCCN(C)C` [Example 8, N-(2-(2-(dimethylamino)ethxy)-4-methoxy-5-((6-(R)-3-phenylisoxazolidine-2-yl)pyrimidine-4-yl-amino)phenyl) acrylamide], the GI50 lay in the range of 0.05 to 0.5 µM in assay [4], 0.5 to 5 µM in the assay on Ba/F3 cell naive and 0.05 to 0.5 µM in assay [3].

As for `C=CC(=O)Nc1cc(Nc2cc(N3OCC[C@@H]3c3cc(F)cc(F)c3)ncn2)c(OC)cc1N1CCC(N2CC[C@H](N(C)C)C2)CC1` [Example 250, N-(5-((6-((R)-3-(3,5-difluorophenyl)isoxazolidine-2-yl)pyrimidine-4-yl)amino)-2-(4-((S)-3-(dimethylamino)pyrolidine-1-yl)piperidine-1-yl)-4-methoxyphenyl) acrylamide], the values for the GI50 (in assay [2]; in the assay on Ba/F3 cell naive; in assay [3]) were under 0.05 µM, at least 5 µM and under 0.05 µM, respectively. Besides, the “Ba/F3 (NPH) Activity” value in assay [2] is on record as “A (GI50 < 50 nM)”.

`C=CC(=O)Nc1cc(Nc2cc(N3OCC[C@@H]3c3cc(F)cc(F)c3)ncn2)c(OC)cc1N1CCC(N2CCN(C)CC2)CC1` [Example 26, N-(5-((6-((R)-3-(3,5-difluorophenyl)isoxazolidine-2-yl)pyrimidine-4-yl)amino)-4-methoxy-2-(4-(4-methylpiperazine-1-yl)piperidine-1-yl)phenyl)acrylamide]: the GI50 in assay [5] is under 0.05 µM; in assay [2], under 0.05 µM; with Ba/F3 cell naive it was at least 5 µM; in assay [6], under 0.05 µM; in assay [3], under 0.05 µM. Also, in assay [2], the “Ba/F3 (NPH) Activity” value is reported as “A (GI50 < 50 nM)”.

Regarding `C=CC(=O)Nc1cc(Nc2cc(N3OCC[C@@H]3c3ccccc3)ncn2)c(OC)cc1N1CCN(C2CC2)CC1` [Example 7, N-(2-(4-cyclopropylpiperazine-1-yl)-4-methoxy-5-((6-((R)-3-phenylisoxazolidine-2-yl)pyrimidine-4-yl)amino)phenyl) acrylamide], the figures for the GI50 (in assay [4]; in the assay on Ba/F3 cell naive; in assay [3]) were under 0.05 µM, at least 5 µM and 0.05 to 0.5 µM, respectively.

With `C=CC(=O)Nc1cc(Nc2cc(N3OCC[C@@H]3c3cc(F)cc(F)c3)ncn2)c(OC)cc1N1CCN(CC)CC1` [Example 240, N-(5-((6-((R)-3-(3,5-difluorophenyl)isoxazolidine-2-yl)pyrimidine-4-yl)amino)-2-(4-ethylpiperazine-1-yl)-4-methoxyphenyl) acrylamide], the GI50 in assay [1] was under 0.05 µM; in assay [2] it was under 0.05 µM; in the assay with Ba/F3 cell naive, at least 5 µM; in assay [3], under 0.05 µM. Besides, the “Ba/F3 (NPH) Activity” value in assay [2] is on record as “A (GI50 < 50 nM)”.

As for `C=CC(=O)Nc1cc(Nc2cc(N3OCC[C@H]3c3ccccc3)ncn2)c(OC)cc1N(C)CCN(C)C` [Example 1, N-(2((2-(dimethylamino)ethyl) (methyl)amino)-4-methoxy-5-((6-((S)-3-phenylisoxazolidine-2-yl)pyrimidine-4-yl)amino)phenyl) acrylamide], the GI50 is 0.05 to 0.5 µM in assay [4], under 0.05 µM on Ba/F3 cell EGFR L858R, at least 5 µM in the assay on Ba/F3 cell naive and 0.05 to 0.5 µM in assay [3].

With `C=CC(=O)Nc1cc(Nc2cc(N3OCC[C@@H]3c3cc(F)cc(F)c3)ncn2)c(OC)cc1N1CCC(N2CCN(C(C)=O)CC2)CC1` [Example 251, N-(2-(4-(4-acetylpiperazine-1-yl)piperidine-1-yl)-5-((6-((R)-3-(3,5-difluorophenyl)isoxazolidine-2-yl)pyrimidine-4-yl)amino)-4-methoxyphenyl) acrylamide], the GI50 is under 0.05 µM in assay [2], at least 5 µM in the assay on Ba/F3 cell naive and under 0.05 µM in assay [3]. Besides, the “Ba/F3 (NPH) Activity” value in assay [2] is on record as “A (GI50 < 50 nM)”.

Turning to `C=CC(=O)Nc1cc(Nc2cc(N3OCC[C@@H]3c3ccccc3)ncn2)c(OC)cc1N1CCOCC1` [Example 5, N-(4-methoxy-2-morpholino-5-((6-((R)-3-phenylisoxazolidine-2-yl)pyrimidine-4-yl)amino)phenyl) acrylamide], the GI50 in assay [4] was 0.05 to 0.5 µM; at Ba/F3 cell EGFR L858R, under 0.05 µM; in the assay with Ba/F3 cell naive it was at least 5 µM; in assay [3], 0.05 to 0.5 µM.

Take `C=CC(=O)Nc1cc(Nc2cc(N3OCC[C@H]3c3ccccc3)ncn2)c(OC)cc1N1CCOCC1` [Example 2, N-(4-methoxy-2-morpholino-5-((6-((S)-3-phenylisoxazolidine-2-yl)pyrimidine-4-yl)amino)phenyl) acrylamide]: the GI50 was 0.5 to 5 µM in assay [4], 0.05 to 0.5 µM at Ba/F3 cell EGFR L858R, at least 5 µM in the assay on Ba/F3 cell naive and 0.5 to 5 µM in assay [3].

As for `C=CC(=O)Nc1cc(Nc2cc(N3OCC[C@@H]3c3cc(F)cc(F)c3)ncn2)c(OC)cc1N1CCC(N2CCC(N(C)C)CC2)CC1` [Example 253], the GI50 in assay [2] was under 0.05 µM; with Ba/F3 cell naive, 0.5 to 5 µM; in assay [3], under 0.05 µM. Further, the “Ba/F3 (NPH) Activity” value in assay [2] was “A (GI50 < 50 nM)”.

`C=CC(=O)Nc1cc(Nc2cc(N3OCC[C@@H]3c3cc(F)cc(F)c3)ncn2)c(OC)cc1N1CCC(N2CC3CC(C2)N3CC)CC1` [Example 252, N-(5-((6-((R)-3-(3,5-difluorophenyl)isoxazolidine-2-yl)pyrimidine-4-yl)amino)-2-(4-(6-ethyl-3,6-diazabicyclo[3.1.1]heptane-3-yl)piperidine-1-yl)-4-methoxyphenyl) acrylamide]: the results for the 50% growth inhibitory concentration (GI50) (in assay [2]; in the assay with Ba/F3 cell naive; in assay [3]) were under 0.05 µM, 0.5 to 5 µM and under 0.05 µM, respectively. Moreover, in assay [2], the “Ba/F3 (NPH) Activity” value is “A (GI50 < 50 nM)”.

On to `C=CC(=O)Nc1cc(Nc2cc(N3OCC[C@@H]3c3cc(F)cc(F)c3)ncn2)c(OC)cc1N1CCC(N2C3CC2CN(CC)C3)CC1` [Example 249, N-(5-((6-((R)-3-(3,5-difluorophenyl)isoxazolidine-2-yl)pyrimidine-4-yl)amino)-2-(4-(3-ethyl-3,6-diazabicyclo[3.1.1]heptane-6-yl)piperidine-1-yl)-4-methoxyphenyl) acrylamide], for which the GI50 in assay [2] was under 0.05 µM; in the assay on Ba/F3 cell naive it was at least 5 µM; in assay [3], under 0.05 µM. The “Ba/F3 (NPH) Activity” value in assay [2] is on record as “A (GI50 < 50 nM)”.
